Reference: patent US6265423A, “Aromatic polycyclic retinoid-type derivatives, method for preparing same, and use thereof for making pharmaceutical and cosmetic compositions” (priority 1996, dated 2001)

Key:
[1] = system: T-47D human mammary cancer cells; assay: MTT test, proliferation of T-47D; type: cell-based; conditions: for activity at 100 µM / activity at 1 µM / activity at 0.01 µM: Homo sapiens, T47D, T-47D, 72 h, control = 100%, read-out: level of proliferation; for activity at 100 µM: 10^-4 M; for activity at 1 µM: 10^-6 M; for activity at 0.01 µM: 10^-8 M; for effect on cellular increase, T-47D (in words): MTT test
Procedure: (§1) The cells that were cultured came from the ATCC (American Type Culture Collection).
(§2) The cellular lines are kept in culture in a monolayer at 37° C. in closed culture dishes (Nunc. Gibco BRL, Life Technologies, Belgium) containing the minimum essential medium (MEM, Gibco) supplemented with 5% of Foetal Calf Serum, (FCS, Gibco), 0.6 mg/ml of glutamine (Gibco) and a mixture of 200 IU/mi of penicillin (Gibco), 200 μg/ml of streptomycin (Gibco) and 0.1 mg/ml of gentamycin (Gibco). The foetal calf serum is decomplemented for 1 hour at 56° C.
(§3) This test is based on the mitochondrial reduction by living metabolically active cells of the MTT (3-(4,5-dimethylthiazol-2-yl)-2,5-diphenyltetrazolium bromide) of yellowish colour into a blue coloured product, formazan. The quantity of formazan obtained is directly proportional to the number of living cells. After incubation of the cells for 24 hours in microplates with 96 flat bottomed wells, the culture medium is replaced by 100 μl of fresh culture medium containing the drug to be tested.
(§4) The microplates are then incubated for 3 hours at 37° C. and centrifuged for 10 minutes at 400 g (GPR centrifuge, Beckman). The MTT solution is replaced by 100 μl of dimethylsulphoxide (Merck). The microplates are agitated (Vari-Shaker, Dynatech) for 10 minutes.
(§5) In the microplates, the control cells like the treated cells were incubated in a medium without the compounds to be tested for 24 hours. The control cells are incubated in a medium without a drug throughout the whole experiment, while the treated cells are incubated in different media. These media contain the molecule to be tested at various concentrations: 10^-8 M, 10^-6 M and 10^-4 M. All the tests are carried out in 6 duplicates.
(§6) The statistical comparisons are carried out according to the Fisher Test:
(§7) The mean optical density measured for each experimental condition is expressed as a percentage in relation to the laid down control condition being equal to 100%.

[2] = system: A549 human pulmonary cancer cells; assay: MTT test, proliferation of A549; type: cell-based; conditions: Homo sapiens, 72 h, control = 100%, read-out: level of proliferation; for activity at 100 µM: A549, 10^-4 M; for activity at 1 µM: A549, 10^-6 M; for activity at 0.01 µM: A549, 10^-8 M
[3] = system: ZR-75-1 human mammary cancer cells; assay: MTT test, proliferation of ZR-75-1; type: cell-based; conditions: for activity at 100 µM / activity at 1 µM / activity at 0.01 µM: Homo sapiens, 72 h, control = 100%, read-out: level of proliferation; for activity at 100 µM: ZR-75-1, 10^-4 M; for activity at 1 µM: ZR-75-1, 10^-6 M; for activity at 0.01 µM: ZR-75-1, 10^-8 M; for effect on cellular increase, ZR-75-1 (in words): MTT test
Procedure: as §1, §2, §3, §4, §5, §6, §7

[4] = system: A-427 human pulmonary cancer cells; assay: MTT test, proliferation of A-427; conditions: for activity at 0.01 µM / activity at 1 µM / activity at 100 µM: Homo sapiens, A-427, 72 h, read-out: level of proliferation; for effect on cellular increase, A-427 (in words): MTT test

Row | SMILES | activity at 100 µM [1] [%] | activity at 1 µM [1] [%] | activity at 0.01 µM [1] [%] | activity at 100 µM [2] [%] | activity at 1 µM [2] [%] | activity at 0.01 µM [2] [%] | activity at 100 µM [3] [%] | activity at 1 µM [3] [%] | activity at 0.01 µM [3] [%] | activity at 0.01 µM [4] [%] | activity at 1 µM [4] [%] | activity at 100 µM [4] [%] | effect on cellular increase, T-47D (in words) [1] | effect on cellular increase, ZR-75-1 (in words) [3] | effect on cellular increase, A-427 (in words) [4]
1 | C/C(=C\c1ccc2c(c1)C(C)(C)CCS2)c1ccc(C(=O)O)cc1 [CB12994] | 1.8 | 51.8 | 67.6 | 53.2 | 89 | 92.1 | 31.8 | 126 | 121 | 107 | 93.6 | 4.4 | – | – | –
2 | C/C(=C\c1ccc2c(c1)C(C)(C)CCS2(=O)=O)c1ccc(-c2nnn[nH]2)cc1 [CB15068, (E) 5-[4-[1-(3',4'-dihydro-4'4'-dimethyl-1',1'-dioxide-2'H-1'-benzothiopyran-6'-yl)-2-propenyl]phenyl]-1H-tetrazole] | 32.2 | 87.8 | 101 | 81.8 | 97.3 | 92.7 | 59.3 | 99.9 | 99.2 | 88.5 | 98 | 24.3 | do not influence the cellular increase of the lineages under consideration | do not influence the cellular increase of the lineages under consideration | –
3 | C/C(=C/c1cc2c(cc1C)C(C)(C)CCC2(C)C)c1ccc(C(=O)O)cc1 [CB32706] | 0 | 88.6 | 94 | 6 | 103 | 101 | 0.7 | 93.1 | 95 | 103 | 99.6 | 0.8 | – | – | –
4 | C/C(=C/c1ccc2c(c1)C(C)(C)CCS2(=O)=O)c1ccc(-c2nnn[nH]2)cc1 [CB39122, (Z) 5-[4-[1-(3',4'-dihydro-4',4'-dimethyl-1',1'-dioxide-2'H-1'-benzothiopyran-6'-yl)-2-propenyl]phenyl]-1H-tetrazole] | 57.1 | 100 | 102 | 84.8 | 98 | 96.2 | 74.2 | 97.3 | 102 | 93.9 | 96.5 | 27.1 | – | – | –
5 | C/C(=C\c1ccc2c(c1)C(C)(C)CCS2(=O)=O)c1ccc(C(=O)O)cc1 [CB39356] | 36.4 | 108 | 86 | 72 | 105 | 105 | 59.6 | 148 | 133 | 124 | 129 | 70.7 | do not influence the cellular increase of the lineages under consideration | do not influence the cellular increase of the lineages under consideration | a stimulation of the cellular increase
6 | C/C(=C\c1cc2c(cc1C)C(C)(C)CCC2(C)C)c1ccc(-c2nnn[nH]2)cc1 [CB40747, (E) 5-[4-[1-(5,6,7,8-tetrahydro-3,5,5,8,8-pentamethyl-2-naphthalenyl)-2-propenyl]phenyl]-1H-tetrazole] | 0 | 85.2 | 106 | 0 | 192 | 176 | 0 | 107 | 111 | 100 | 83.7 | 1.7 | – | – | a stimulation of the cellular increase
7 | C/C(=C/c1ccc2c(c1)C(C)(C)CCS2)c1ccc(C(=O)O)cc1 [CB41666] | 28 | 69.5 | 88.7 | 63.2 | 89.9 | 94.5 | 48.5 | 115 | 112 | 83 | 91.2 | 7.6 | – | – | –
8 | Cc1cc2c(cc1/C=C(\c1ccc(C(=O)O)cc1)C(F)(F)F)C(C)(C)CCC2(C)C [CB62899, (E) 4-[1-trifluoromethyl-2-(5,6,7,8-tetrahydro-3,5,5,8,8-pentamethyl-2-naphthalenyl)-1-ethenyl]benzoic acid] | 1.7 | 73.7 | 128 | 0.45 | 119 | 131 | 0.4 | 112 | 112 | 115 | 124 | 0 | – | – | –
9 | Cc1cc2c(cc1/C=C(\c1ccc(-c3nnn[nH]3)cc1)C(F)(F)F)C(C)(C)CCC2(C)C [CB63237, (E) 5-[4-[1-trifluoromethyl-2-(5,6,7,8-tetrahydro-3,5,5,8,8-pentamethyl-2-naphthalenyl)-1-ethenyl]phenyl]-1H-tetrazole] | 4.1 | 125 | 120 | 2.1 | 140 | 124 | 0 | 106 | 86.5 | 88.1 | 148 | 4.1 | – | – | –
10 | CCCCCCCOc1cc2c(cc1/C(C)=C/c1ccc(C(=O)O)cc1)C(C)(C)CCS2(=O)=O [CB65757] | 0 | 126 | 124 | 0 | 111 | 108 | 1 | 118 | 116 | 106 | 146 | 0 | – | – | –
11 | C=C(c1ccc(C(=O)Nc2ccc(O)cc2)cc1)c1cc2c(cc1C)C(C)(C)CCC2(C)C [CB65801] | 1.6 | 62.7 | 92.8 | – | – | – | 0.2 | 93.4 | 138 | – | – | – | – | – | –
12 | C/C(=C/c1ccc2c(c1)C(C)(C)CCS2(=O)=O)c1ccc(C(=O)O)cc1 [CB72484] | 99 | 128 | 129 | 129 | 111 | 114 | 129 | 138 | 145 | 131 | 130 | 182 | – | – | –
13 | COc1cc2c(cc1/C(C)=C/c1ccc(C(=O)O)cc1)C(C)(C)CCS2(=O)=O [CB77787] | 86.3 | 120 | 129 | 103 | 125 | 118 | 93.5 | 113 | 114 | 120 | 110 | 163 | – | – | –
14 | Cc1cc2c(cc1C(=O)c1ccc(C(=O)Nc3ccc(O)cc3)cc1)C(C)(C)CCC2(C)C [CB81616] | 1.4 | 96.7 | 103 | – | – | – | 0 | 134 | 136 | – | – | – | – | – | –
